Results as given in PubChem BioAssay (NCI).
Several values for one entry are separate records, joined by “and”; a condition that tells them apart may be missing. Equal values may be shown once.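 These data come from cells grown in 96-well plates and exposed to compound for 48 hours at five concentrations. GI50: concentration for 50% inhibition of growth. TGI: concentration producing complete growth inhibition.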

Experiments:
Test in all cases: growth of human tumour cells (NCI), 48 h
OVCAR-4 ovarian = system: OVCAR-4 ovarian
M14 melanoma = system: M14 melanoma
NCI-H23 lung = system: NCI-H23 lung
SF-539 CNS = system: SF-539 CNS
KM12 colon = system: KM12 colon
HS 578T breast = system: HS 578T breast
SK-OV-3 ovarian = system: SK-OV-3 ovarian
SR leukemia = system: SR leukemia
A498 renal = system: A498 renal
HCC-2998 colon = system: HCC-2998 colon

How did the TGI (OVCAR-4 ovarian) turn out when `CN(C)CCCN1c2ccc(O)cc2Sc2ccc(Cl)cc21` was run?
Its TGI is 25.5 µM.

And the TGI (M14 melanoma)?
The TGI was 19.7 µM.

What about the TGI (NCI-H23 lung) of the same molecule?
The TGI was 34 µM.

And the TGI (SF-539 CNS)?
The TGI was 28.7 µM.

What about the TGI (KM12 colon) of the same molecule?
The TGI was 23 µM.

What about the TGI (HS 578T breast) of the same molecule?
Its TGI is 23.1 µM.

What about the TGI (SK-OV-3 ovarian) of the same molecule?
Its TGI is 32.1 µM.

What about the TGI (SR leukemia) of the same molecule?
The TGI was 15.8 µM.

What about the TGI (A498 renal) of the same molecule?
Its TGI is 31.6 µM.

Which TGI (OVCAR-4 ovarian) does the source give for `Cc1cc(Cl)ccc1N1C(=O)C(=O)C(c2nc3ccccc3o2)C(=O)C1=O` here?
Its TGI is greater than 100 µM.

What about the TGI (M14 melanoma) of the same molecule?
The TGI was greater than 100 µM.

What about the TGI (NCI-H23 lung) of the same molecule?
The TGI was greater than 100 µM.

What about the TGI (SF-539 CNS) of the same molecule?
The TGI was greater than 100 µM.

What about the TGI (KM12 colon) of the same molecule?
Its TGI is greater than 100 µM.

What about the TGI (HCC-2998 colon) of the same molecule?
The TGI was greater than 100 µM.

What about the TGI (SK-OV-3 ovarian) of the same molecule?
Its TGI is greater than 100 µM.

What about the TGI (SR leukemia) of the same molecule?
The TGI was greater than 100 µM.

And the TGI (A498 renal)?
Its TGI is greater than 100 µM.

With `Cc1cccc(Cl)c1NC(=O)c1cccc([N+](=O)[O-])c1O` as the molecule, how does the TGI (OVCAR-4 ovarian) read?
Its TGI is greater than 100 µM.

What about the TGI (M14 melanoma) of the same molecule?
Its TGI is greater than 100 µM.

And the TGI (NCI-H23 lung)?
Its TGI is 85.1 µM.

And the TGI (SF-539 CNS)?
Its TGI is 85.2 µM.

And the TGI (KM12 colon)?
Its TGI is 66 µM.

And the TGI (HCC-2998 colon)?
Its TGI is greater than 100 µM.

What about the TGI (SK-OV-3 ovarian) of the same molecule?
The TGI was greater than 100 µM.

And the TGI (A498 renal)?
The TGI was greater than 100 µM.

`Cc1ccc(S(=O)(=O)NNC(C[N+](=O)[O-])c2ccccc2)cc1` (stereo unspecified) was tested. Which TGI (OVCAR-4 ovarian) did it give?
Its TGI is 32.1 µM.

And the TGI (M14 melanoma)?
The TGI was greater than 100 µM.

What about the TGI (NCI-H23 lung) of the same molecule?
The TGI was greater than 100 µM.

And the TGI (SF-539 CNS)?
Its TGI is 81.5 µM.

What about the TGI (KM12 colon) of the same molecule?
Its TGI is greater than 100 µM.

What about the TGI (HS 578T breast) of the same molecule?
Its TGI is greater than 100 µM.

What about the TGI (SK-OV-3 ovarian) of the same molecule?
The TGI was 46.3 µM.

What about the TGI (SR leukemia) of the same molecule?
Its TGI is 5.56 µM.

What about the TGI (A498 renal) of the same molecule?
Its TGI is 30.8 µM.

What does the source list for `CNC(C)[C@H]1CCC2C3CCC4C[C@@H](N(C)C(=O)c5ccccc5)CC[C@]4(C)C3CC[C@@]21C` (stereo partly specified)?
GI50 (OVCAR-4 ovarian): 1.44 µM; TGI (OVCAR-4 ovarian): 16.4 µM; GI50 (M14 melanoma): 1.3 µM; TGI (M14 melanoma): 2.95 µM; GI50 (NCI-H23 lung): 0.737 µM; TGI (NCI-H23 lung): 4.96 µM; GI50 (SF-539 CNS): 0.739 µM; TGI (SF-539 CNS): 2.01 µM; GI50 (KM12 colon): 1.44 µM; TGI (KM12 colon): 5.83 µM; GI50 (HS 578T breast): 1.34 µM; TGI (HS 578T breast): 3.94 µM; GI50 (HCC-2998 colon): 1.63 µM; TGI (HCC-2998 colon): 4.8 µM; GI50 (SK-OV-3 ovarian): 2.06 µM; TGI (SK-OV-3 ovarian): 5.29 µM; GI50 (A498 renal): 1.65 µM; TGI (A498 renal): 10.2 µM

What does the source list for `CCCC(=O)O[C@]1(C)CC[C@@H]2[C@H]3[C@@H]1[C@@H]1C/C(C)=C\CC[C@](C)(OC(=O)[C@@H]2C)[C@H]3O1`?
GI50 (OVCAR-4 ovarian): 52.9 µM; TGI (OVCAR-4 ovarian): > 100 µM; GI50 (M14 melanoma): 32.5 µM; TGI (M14 melanoma): > 100 µM; GI50 (SF-539 CNS): > 100 µM; TGI (SF-539 CNS): > 100 µM; GI50 (KM12 colon): 32.8 µM; TGI (KM12 colon): > 100 µM; GI50 (HS 578T breast): 40 µM; TGI (HS 578T breast): > 100 µM; GI50 (HCC-2998 colon): 21.7 µM; TGI (HCC-2998 colon): 82.9 µM; GI50 (SK-OV-3 ovarian): > 100 µM; TGI (SK-OV-3 ovarian): > 100 µM; GI50 (SR leukemia): 13.2 µM; TGI (SR leukemia): 26.9 µM

Which results are given for `C[CH2][Ge]([CH2]C)([CH2]C)[O]C(=O)C([O][Ge]([CH2]C)([CH2]C)[CH2]C)c1ccccc1` (stereo unspecified)?
GI50 (OVCAR-4 ovarian): 6.36 µM; TGI (OVCAR-4 ovarian): > 100 µM; GI50 (M14 melanoma): 17.1 µM; TGI (M14 melanoma): 44.2 µM; GI50 (NCI-H23 lung): 10.1 µM; TGI (NCI-H23 lung): 44.3 µM; GI50 (SF-539 CNS): 17.1 µM; TGI (SF-539 CNS): 40.5 µM; GI50 (KM12 colon): 11.9 µM; TGI (KM12 colon): 26.1 µM; GI50 (HCC-2998 colon): 19.2 µM; TGI (HCC-2998 colon): 38.5 µM; GI50 (SK-OV-3 ovarian): 11.1 µM; TGI (SK-OV-3 ovarian): 31.7 µM; GI50 (SR leukemia): 14.5 µM; TGI (SR leukemia): 75.4 µM; GI50 (A498 renal): 19.2 µM; TGI (A498 renal): 67.5 µM

For `CC(=O)OCC1OC(n2c(=S)n(-c3ccccc3)c(=O)c3cc(Br)ccc32)C(OC(C)=O)C(OC(C)=O)C1OC(C)=O` (stereo unspecified), which GI50 (OVCAR-4 ovarian) is on record?
The GI50 was 10.6 µM and > 100 µM.

And the TGI (OVCAR-4 ovarian)?
Its TGI is greater than 100 µM.

And the TGI (M14 melanoma)?
Its TGI is greater than 100 µM.

And the TGI (NCI-H23 lung)?
The TGI was greater than 100 µM.

What about the TGI (SF-539 CNS) of the same molecule?
The TGI was greater than 100 µM.

What about the TGI (KM12 colon) of the same molecule?
The TGI was greater than 100 µM.

What about the TGI (HCC-2998 colon) of the same molecule?
The TGI was greater than 100 µM.

What about the TGI (SK-OV-3 ovarian) of the same molecule?
Its TGI is greater than 100 µM.

And the GI50 (SR leukemia)?
The GI50 was > 100 µM and 12 µM.

What about the TGI (SR leukemia) of the same molecule?
Its TGI is greater than 100 µM.

What about the TGI (A498 renal) of the same molecule?
The TGI was greater than 100 µM.

What does the source list for `O=C1C(CO)=C[C@@H](O)[C@H]2O[C@@H]12`?
TGI (OVCAR-4 ovarian): 53.4 µM; TGI (M14 melanoma): > 100 µM; TGI (NCI-H23 lung): > 100 µM; TGI (KM12 colon): > 100 µM; TGI (HS 578T breast): > 100 µM; TGI (SK-OV-3 ovarian): > 100 µM; TGI (SR leukemia): > 100 µM; TGI (A498 renal): > 100 µM
